Test results taken from paper PMC9618981, “Impact of peptide permeation enhancer on tight junctions opening cellular mechanisms” (Biochemistry and Biophysics Reports, 2022).
Ends that are not written are not given here. Peptide text beside a SMILES is read from it. * marks the point of attachment. Myristoyl = CCCCCCCCCCCCCC(=O)*

What was measured:
[1] = system: Caco-2 cells; test: Quantitative proteomic analysis (DIA LC-MS/MS) of Caco-2 cells; type: cell-based, human; conditions: Caco-2, 1 h
Procedure: For Western blot experiments, cells were seeded in 12-well plates (Merck, Schaffhausen, Switzerland) at a density of 50′000 cells/cm^2. For the proteomic experiments, the cells were seeded in T10 flasks (Merck, Schaffhausen, Switzerland) at the same initial seeding density. After 7 days and two washes with warm phosphate buffered saline (PBS, Thermofisher, Waltham, MA, USA), the conditions were applied for 1 h. Peptides were applied at a concentration between 20 and 100 μM. A chemical inhibitor of PKC ζ was also tested. The molecule 4f was used at a concentration of 10 μM in 0.1% DMSO as a positive control. All dilutions were done in 0.9% saline solution. After incubation, cells for Western blot experiments were lysed with RIPA buffer (Cell signalling, Danvers, MA, USA) containing protease and phosphatase inhibitors (Roche, Basel, Switzerland). After centrifugation to discard cell components, the samples were stored at −20 °C. Cells for proteomic analysis were detached with trypsin, washed 3 times with PBS and kept at −80 °C until analysis. Samples for proteomic analysis were produced in triplicate for each condition.
Cell pellets were resuspended in 100 μL of 0.1% RapiGest Surfactant (Waters, Milford, MA, USA) in 50 mM ammonium bicarbonate (AB). Samples were heated for 5 min at 100 °C. Lysis was performed by sonication (6 × 30 s) at 70% amplitude and 0.5 pulse. Samples were kept 30 s on ice between each cycle of sonication. Samples were centrifuged for 10 min at 14′000×g. Protein concentration was measured by Bradford assay and 25 μg of each sample was subjected to protein digestion as follows: the sample volume was adjusted to 100 μL with 0.1% RapiGest in 50 mM AB. 2 μL of 50 mM dithioerythritol (DTE) were added and the reduction was carried out at 60 °C for 1h. Alkylation was performed by adding 2 μL of iodoacetamide 400 mM during 1 h at room temperature in the dark. Overnight digestion was performed at 37 °C with 5 μL of freshly prepared trypsin (Promega AG, Dübendorf, Switzerland) in 50 mM AB at a concentration of 0.2 μg/μL. To remove RapiGest, samples were acidified with trifluoroacetic acid (TFA), heated at 37 °C for 45 min and centrifuged 10 min at 17′000×g. Supernatants were then desalted with a C18 microspin column (Harvard Apparatus, Holliston, MA, USA) according to the manufacturer's instructions, completely dried under speed-vacuum and stored at −20 °C.
Samples were diluted at 1 μg/μL with loading buffer (5% CH3CN, 0.1% FA). Biognosys iRT peptides were added to each sample and 2 μg of peptides were injected onto the column. LC-ESI-MS/MS was performed on an Orbitrap Fusion Lumos Tribrid mass spectrometer (Thermo Scientific, San Jose, CA, USA) equipped with an Easy nLC1200 liquid chromatography system (Thermo Scientific, San Jose, CA, USA). Peptides were trapped on an Acclaim pepmap100, C18, 3 μm, 75 μm × 20 mm nano trap-column (Thermofisher) and separated on a 75 μm × 500 mm, C18 ReproSil-Pur (Dr. Maisch GmbH, Ammerbuch, Germany), 1.9 μm, 100 Å, custom-made column. The analytical separation was run for 135 min using a gradient of H2O/FA 99.9%/0.1% (solvent A) and CH3CN/H2O/FA 80.0%/19.9%/0.1% (solvent B). The gradient was run from 8% B to 28% B in 110 min, then to 42% B in 25 min, then to 95%B in 5 min with a final stay of 20 min at 95% B. Flow rate was of 250 nL/min a total run time was of 160 min. Data-Independent Acquisition (DIA) was performed with MS1 full scan at a resolution of 60,000 (FWHM) followed by 30 DIA MS2 scan with fix windows. MS1 was performed in the Orbitrap with an automatic gain control (AGC) target of 1 × 10^6, a maximum injection time of 50 ms and a scan range from 400 to 1240 m/z. DIA MS2 was performed in the Orbitrap using higher-energy collisional dissociation (HCD) at 30%. Isolation window was set to 28 m/z with an AGC target of 1 × 10^6 and a maximum injection time of 54 ms. […]

[2] = system: occludin expression in Caco-2 cells; test: Immunoblot of total protein extracts from Caco-2 cells, occludin; type: cell-based, human; conditions: Caco-2, 1 h, peptides 50 μM, In 10 μM
Procedure: (§1) Caco-2 cells (ATCC, Manassas, VA, USA) were cultured in T75 flasks (Merck, Schaffhausen, Switzerland). The cells were incubated at 37 °C and a humidified atmosphere containing 5% of CO2. The medium containing 10% fetal bovine serum (FBS, Thermofisher, Waltham, MA, USA) was changed every 2–3 days. The Caco-2 cells were passaged every 5 days. The passage numbers were between 33 and 36.
(§2) For Western blot experiments, cells were seeded in 12-well plates (Merck, Schaffhausen, Switzerland) at a density of 50′000 cells/cm^2. For the proteomic experiments, the cells were seeded in T10 flasks (Merck, Schaffhausen, Switzerland) at the same initial seeding density. After 7 days and two washes with warm phosphate buffered saline (PBS, Thermofisher, Waltham, MA, USA), the conditions were applied for 1 h. Peptides were applied at a concentration between 20 and 100 μM. A chemical inhibitor of PKC ζ was also tested. The molecule 4f was used at a concentration of 10 μM in 0.1% DMSO as a positive control. […]
(§3) 50 μg cell extracts and p-threonine proteins were separated by SDS-polyacrylamide gel electrophoresis (4–15%) (Bio-Rad, Hercules, CA, USA) and transferred to nitrocellulose membrane. […] These primary antibodies were then recognized by anti-mouse and anti-rabbit antibodies (Li-Cor Biosciences, Lincoln, NE, USA) and detected by Odyssey® imaging system (Li-Cor Biosciences). […]

[3] = system: ZO-1 expression in Caco-2 cells; test: Immunoblot of total protein extracts from Caco-2 cells, ZO-1; type: cell-based, human; conditions: Caco-2, 1 h, peptides 50 μM, In 10 μM, normalised to actin
Procedure: as §1, §2, §3

[4] = previous studies; cited from earlier work
Description: Previous studies have shown that ZIP is not specifically and competitively inhibiting PKC ζ phosphorylation of some TJ proteins (occludin and ZO-1). The structural similarities of the PS of the PKC family does explain this non-specificity. Therefore, L-R5 would also be competitive with other PKCs and would interfere with most intracellular mechanisms involving PKCs. […] Given the absence o ...

[5] = target: protein kinase C zeta (PKC ζ) (not stated (only the C-terminal fragment is called human)) (UniProt Q05513); test: MST; labelled PKC ζ fixed at 30 nM; occludin in serial dilution 0-11300 nM; L-R5 present as competitor at a fixed 1.25 mM; Tris buffer pH 7.4; hydrophilic capillaries
[6] = target: protein kinase C zeta (PKC ζ) (not stated (only the C-terminal fragment is called human)) (UniProt Q05513); test: MST; PKC ζ labelled by RED-Tris-NTA on its His tag, fixed (20 nM with L-R5 at 0-4000 μM; 30 nM with occludin at 0-35000 nM); ligand in serial dilution; Tris buffer pH 7.4; hydrophilic capillaries; 20%, 40% and 80% MST power
[7] = target: T1, occludin (UniProt Q16625 1-522); test: MST; occludin labelled by RED-Tris-NTA on its His tag, fixed at 50 nM; L-R5 in serial dilution 0-25000 μM; Tris buffer pH 7.4; hydrophilic capillaries; 20%, 40% and 80% MST power; conditions: both partners purified
T1 chain: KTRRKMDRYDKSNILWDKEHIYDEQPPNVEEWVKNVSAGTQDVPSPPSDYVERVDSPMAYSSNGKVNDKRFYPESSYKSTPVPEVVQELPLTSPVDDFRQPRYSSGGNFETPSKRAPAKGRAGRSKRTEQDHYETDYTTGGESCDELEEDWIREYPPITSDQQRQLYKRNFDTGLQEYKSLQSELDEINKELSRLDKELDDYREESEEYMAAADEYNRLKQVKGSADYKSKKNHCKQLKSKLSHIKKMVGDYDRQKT

[8] = target: T2, PKC ζ-occludin interaction (Homo sapiens, UniProt Q16625); test: Microscale thermophoresis (MST), interaction between PKC ζ and occludin, without and with L-R5 as competitor; type: binding; conditions: labelled PKC ζ 30 nM, occludin as ligand 0-35 μM, no competitor, Tris buffer pH 7.4, n = 2
T2 construct: purchased Eurofins pharma (PKC ζ); occludin source not clearly printed (probably RayBiotech); host or cells: Sf21 insect cells (PKC ζ)
T2 sequence (Q16625 266-522 limits assumed): T1 chain
Procedure: The protein construct of PKC ζ active (recombinant enzyme expressed in Sf21 insect cells) was purchased from Eurofins pharma (Dundee, United Kingdom) and the recombinant human […] was purchased from RayBiotech (Peachtree Corners, GA, USA). Fluorescent labelling of both, PKC ζ and occludin was performed following the protocol of coupling the His-tag labelling kit RED-Tris-NTA 2nd generation (Nanotemper Technologies, Munich, Germany) to their respective histidine tail. The fluorescence of the tagged proteins was then measured with the monolith NT.115 microscale thermophoresis instrument (Nanotemper Technologies, Munich, Germany). An excitation LED of 100% was set for the Cap. Scan. The predicted optimal dilution was then calculated to obtain a final fluorescence signal of 100 Raw fluorescence [counts].
Hydrophilic capillaries were used for the different tests because the samples interacted with standard capillaries. […] The different solutions were analysed by MST at 20%, 40% and 80% MST power with a 100% LED intensity. […] The results and Kd values were analysed by MO.affinity analysis 3 software (Nanotemper Technologies, Munich, Germany).
Microscale thermophoresis is a method used to quantify the affinity between two molecules (e.g., proteins) by increasing the concentration of the ligand while keeping the concentration of the target fixed. […]

Molecule: CC(C)(C)C1=NN(c2cccc(Cl)c2)C(c2ccc(F)c(O)c2)C1 (centres unmarked) [In, 5-(3-(tert-Butyl)-1-(3-chlorophenyl)-4,5-dihydro-1H-pyrazol-5-yl)-2-fluorophenol]
- number of downregulated proteins versus control (log 2 (FC) < 0) ([1]; L-R5 50 μM or In 10 μM, n = 3): 10 proteins
- number of upregulated proteins versus control (log 2 (FC) ≥ 0) ([1]; L-R5 50 μM or In 10 μM, n = 3): 6 proteins
- number of significantly differentially expressed proteins versus control ([1]; L-R5 50 μM or In 10 μM, p ≤ 0.05, n = 3): 16 proteins
- expression of E1A binding protein p300 (proteomics) ([1]; L-R5 50 μM, In 10 μM, n = 3): significantly decreased
- expression of ZO-1 (proteomics) ([1]; L-R5 50 μM, In 10 μM, n = 3): no impact
- expression of occludin (proteomics) ([1]; L-R5 50 μM, In 10 μM, n = 3): no impact
- TJ protein expression (occludin and ZO-1, Western blot, Fig. 3) [2]: did not result in a significant decrease
- expression of occludin (Western blot) ([2]; normalised to actin): no effect
- expression of ZO-1 (Western blot) [3]: no effect

Molecule: CCCCCCCCCCCCCC(=O)N[C@@H](C)C(=O)N[C@@H](CCCNC(=N)N)C(=O)N[C@@H](CCCNC(=N)N)C(=O)N[C@@H](Cc1c[nH]c2ccccc12)C(=O)N[C@@H](CCCNC(=N)N)C(=O)O [L-R5] (Myristoyl-ARRWR-OH)
- in vitro cytotoxicity [4]: absence of cytotoxicity

Molecule: occludin (from UniProt Q16625 1-522) (natural protein)
- Kd [5]: 2160 nM
- Kd [6]: 617 nM

B1: L-R5 (myr-ARRWR), myristoylated pentapeptide (peptide)
peptide: Myristoyl-ARRWR
notes: also called L-R5 peptide; source: synthetic peptide, obtained from Bachem AG
- Kd [7]: 606000 nM

B2: occludin: tight junction protein, His-tagged recombinant, used as ligand and as labelled target in MST (protein, UniProt Q16625 1-522, looked up)
Occludin: MSSRPLESPPPYRPDEFKPNHYAPSNDIYGGEMHVRPMLSQPAYSFYPEDEILHFYKWTSPPGVIRILSMLIIVMCIAIFACVASTLAWDRGYGTSLLGGSVGYPYGGSGFGSYGSGYGYGYGYGYGYGGYTDPRAAKGFMLAMAAFCFIAALVIFVTSVIRSEMSRTRRYYLSVIIVSAILGIMVFIATIVYIMGVNPTAQSSGSLYGSQIYALCNQFYTPAATGLYVDQYLYHYCVVDPQEAIAIVLGFMIIVAFALIIFFAVKTRRKMDRYDKSNILWDKEHIYDEQPPNVEEWVKNVSAGTQDVPSPPSDYVERVDSPMAYSSNGKVNDKRFYPESSYKSTPVPEVVQELPLTSPVDDFRQPRYSSGGNFETPSKRAPAKGRAGRSKRTEQDHYETDYTTGGESCDELEEDWIREYPPITSDQQRQLYKRNFDTGLQEYKSLQSELDEINKELSRLDKELDDYREESEEYMAAADEYNRLKQVKGSADYKSKKNHCKQLKSKLSHIKKMVGDYDRQKT
modifications: His tag
notes: tight junction protein, His-tagged recombinant, used as ligand and as labelled target in MST
- Kd [8]: 617 nM
